From patent US9938249B2, “Anti-amyloid compounds containing benzofurazan” (Treventis Corporation, priority 2014, dated 2018) come the findings set out here.

As a reminder, the IC50 is the concentration at which inhibition is half-maximal.

Test [1] deals with Aβ40 (Homo sapiens, UniProt P05067). Put plainly: ThT Aβ aggregation assay (kinetic Thioflavin T fluorescence). In kind it is biochemical. The following applies: compound 10 μM; 20 μM Aβ; DMSO control at 80 hr = 0% inhibition; number in parenthesis = compound ID 1027 in that experiment; read-out: % inhib Thioflavin T Aβ 40 10 μM. As to the method:
Preparation of Aβ40 Stock Solutions
Aβ40 (1.0 mg) was pre-treated in a 1.5 mL microfuge tube with HFIP (1 mL) and sonicated for 20 min to disassemble any pre-formed Aβ aggregates. The HFIP was removed with a stream of argon and the Aβ dissolved in Tris base (5.8 mL, 20 mM, pH ˜10). The pH was adjusted to 7.4 with concentrated HCl (˜10 μL) and the solution filtered using a syringe filter (0.2 μm) before being used.
The kinetic ThT assay for Aβ aggregation is similar to that of Chalifour et al (Chalifour et al, 2003, J. Biol. Chem. 278:34874-81). Briefly, pre-treated Aβ40 or Aβ42 (40 μM in 20 mM Tris, pH 7.4) was diluted with an equal volume of 8 μM Thioflavin T (ThT) in Tris (20 mM, pH 7.4, 300 mM NaCl). Aliquots of Aβ/ThT (200 μL) were added to wells of a black polystyrene 96-well plate, followed by 2 μL of a compound in DMSO (variable concentration), or DMSO alone (controls). Incubations were performed in triplicate and were taken to contain 20 μM Aβ, various concentration of compound in 20 mM Tris, pH 7.4, 150 mM NaCl, 1% DMSO. Plates were covered with clear polystyrene lids and incubated at 37° C. in a Tecan Genios microplate reader.
Analysis of ThT and ThS Aggregation Assays
Fluorescence readings (λex=450 nm, λem=480 nm) were taken every 15 min., after first shaking at high intensity for 15 s and allowing to settle for 10 s before each reading. Active compounds attenuated the increase in fluorescence over time that occurred in controls. In FIGS. 1-7, the time this procedure was performed extended to 80 hours (rightmost part of X-axis), at which point fluorescence increase generally reached an asymptote. Applying a definition of DMSO control at 80 hr as 100% aggregation (0% inhibition) and DMSO control at 0 hr as 0% aggregation (100% inhibition), a % inhibition score where higher is better can be calculated for a given concentration of compound. By repeating this procedure over several concentrations, a […] (IC50) can be measured, as is given in the table below for some compounds.

For test [2], the target named is Terminally biotinylated beta-amyloid (Aβ42) (Homo sapiens, UniProt P05067). Put plainly: Aβ42 biotinylated (biotin-AB) oligomerization assay, NeutrAvidin capture ELISA. The note with it: approximate value; 1 hr oligomerization at room temperature; read-out: IC50 Aβ 42-bio. In kind it is biochemical. In outline:
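Biotin-Aβ42, pretreated with HFIP/TFA to remove seeds, oligomerized 1 h at room temperature with compound in 20 mM sodium phosphate pH 7.5, 150 mM NaCl (DMSO up to 1%). Oligomers captured on NeutrAvidin plates, detected with streptavidin-HRP/TMB at 450 nm; IC50 approximate, in µM.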
A general note: ELISA stands for enzyme-linked immunosorbent assay.

Aβ40, sequence (P05067 672-711, species assumed): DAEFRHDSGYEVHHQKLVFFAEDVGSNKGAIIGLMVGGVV
Terminally biotinylated beta-amyloid (Aβ42), sequence (P05067 672-713, species assumed): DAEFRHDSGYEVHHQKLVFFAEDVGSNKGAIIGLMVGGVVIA

With `OC(c1ccccc1-c1cc(N2CC(CN3CCCC3)C2)c2nonc2c1)C(F)(F)F` (centres unmarked) [compound 1474], the inhibition at 10 µM in test [1] stood at 77%. Moreover, the IC50 in test [2] was determined as 3.1 µM.

As for `c1cncc(-c2cc(N3CC(CN4CCCC4)C3)c3nonc3c2)c1` [compound 1476], the inhibition at 10 µM in test [1] was 36%. Further, the IC50 in test [2] is 12.2 µM.

As to `O=C(c1cc(N2CC(CN3CCCC3)C2)c2nonc2c1)C(F)(F)F` [compound 1477], in test [1], the inhibition at 10 µM turned out to be 30%. Besides, the IC50 in test [2] turned out to be 1.83 µM.

In the case of `Clc1cc(Cl)cc(-c2cc(N3CC(CN4CCCC4)C3)c3nonc3c2)c1` [compound 1478], the inhibition at 10 µM in test [1] worked out at 63%. Besides, in test [2], the concentration for half-maximal inhibition (IC50) was 1.82 µM.

Turning to `CS(=O)(=O)c1cccc(-c2cc(N3CC(CN4CCCC4)C3)c3nonc3c2)c1` [compound 1479], in test [1], the inhibition at 10 µM was 24%. In test [2], the IC50 came out at 7.94 µM.

Take `CC(=O)c1cccc(-c2cc(N3CC(CN4CCCC4)C3)c3nonc3c2)c1` [compound 1480]: the inhibition at 10 µM in test [1] came to 31%. The IC50 in test [2] is 6.33 µM.

As for `CS(=O)(=O)c1ccccc1-c1cc(N2CC(CN3CCCC3)C2)c2nonc2c1` [compound 1481], in test [1], the inhibition at 10 µM was 11%. Further, the IC50 in test [2] amounted to 6.14 µM.

As for `CC(=O)Nc1ccc(-c2cc(N3CC(CN4CCCC4)C3)c3nonc3c2)cc1` [compound 1482], the inhibition at 10 µM in test [1] amounted to 41%. For the same molecule, the IC50 in test [2] was 5.52 µM.

For the molecule `COc1ccc(-c2cc(N3CC(CN4CCCC4)C3)c3nonc3c2)cc1OC` [compound 1483], in test [1], the inhibition at 10 µM stood at 36%. The IC50 in test [2] was 8.21 µM.

For the molecule `FC(F)(F)c1cccc(-c2cc(N3CC(CN4CCCC4)C3)c3nonc3c2)c1` [compound 1484], the inhibition at 10 µM in test [1] turned out to be 56%. In addition, the IC50 in test [2] is 6.5 µM.

Turning to `c1ccc2oc(-c3cc(N4CC(CN5CCCC5)C4)c4nonc4c3)cc2c1` [compound 1485], the inhibition at 10 µM in test [1] was found to be 26%. Moreover, the IC50 in test [2] was determined as 2.63 µM.

Regarding `c1ccc(-c2cc(N3CC(CN4CCCC4)C3)c3nonc3c2)cc1` [compound 1486], the inhibition at 10 µM in test [1] is 32%. Moreover, the IC50 in test [2] was 19.7 µM.

With `CC(C)(C)c1ccc(-c2cc(N3CC(CN4CCCC4)C3)c3nonc3c2)cc1` [compound 1487], the inhibition at 10 µM in test [1] is 33%. Also, the 50% inhibitory concentration (IC50) in test [2] is 0.62 µM.

On to `COc1ccc(-c2cc(N3CC(CN4CCCC4)C3)c3nonc3c2)cc1C` [compound 1488], for which the inhibition at 10 µM in test [1] was 31%. For the same molecule, the IC50 in test [2] was found to be 8.69 µM.

With `CC(C)c1ccc(-c2cc(N3CC(CN4CCCC4)C3)c3nonc3c2)cc1` [compound 1489], the inhibition at 10 µM in test [1] worked out at 34%. Moreover, the IC50 in test [2] worked out at 1.6 µM.

Take `Cc1ccc(-c2cc(N3CC(CN4CCCC4)C3)c3nonc3c2)cc1Cl` [compound 1490]: the inhibition at 10 µM in test [1] was determined as 27%. In addition, in test [2], the half-maximal inhibitory concentration (IC50) is 4.4 µM.

As to `c1ccc(Oc2ccc(-c3cc(N4CC(CN5CCCC5)C4)c4nonc4c3)cc2)cc1` [compound 1491], the inhibition at 10 µM in test [1] is 32%. Further, in test [2], the IC50 was 0.52 µM.

For `COc1ccc(-c2cc(N3CC(CN4CCCC4)C3)c3nonc3c2)cc1Cl` [compound 1492], in test [1], the inhibition at 10 µM came out at 22%. In test [2], the IC50 worked out at 4.8 µM.

Turning to `N#Cc1cccc(-c2cc(N3CC(CN4CCCC4)C3)c3nonc3c2)c1` [compound 1493], in test [1], the inhibition at 10 µM came out at 57%. In test [2], the IC50 came to 12.9 µM.

`Cc1ccc(-c2cc(N3CC(CN4CCCC4)C3)c3nonc3c2)c2ccccc12` [compound 1494]: in test [1], the inhibition at 10 µM was 45%. Also, the IC50 in test [2] was 2.01 µM.

Take `FC(F)(F)Oc1ccccc1-c1cc(N2CC(CN3CCCC3)C2)c2nonc2c1` [compound 1495]: the inhibition at 10 µM in test [1] was 64%. The IC50 in test [2] turned out to be 5.91 µM.

Turning to `Clc1ccc(-c2cc(N3CC(CN4CCCC4)C3)c3nonc3c2)cn1` [compound 1496], the inhibition at 10 µM in test [1] worked out at 41%. Further, in test [2], the IC50 is 13.5 µM.

Take `O=C(C1CN(c2cc(Br)cc3nonc23)C1)N1CCCC1` [compound 1497]: the inhibition at 10 µM in test [1] worked out at 65%. Besides, in test [2], the IC50 was above 20 µM.

In the case of `O=C(C1CN(c2cc(-c3cccc(C(O)C(F)(F)F)c3)cc3nonc23)C1)N1CCCC1` (centres unmarked) [compound 1498], the inhibition at 10 µM in test [1] is 48%. In addition, the 50% inhibitory concentration (IC50) in test [2] came out at 10.8 µM.

Take `OCc1ccccc1-c1cc(N2CC(CN3CCCC3)C2)c2nonc2c1` [compound 1499]: the inhibition at 10 µM in test [1] came out at 34%. Further, the half-inhibitory concentration (IC50) in test [2] is 23.3 µM.

Take `COc1cccc(-c2cc(N3CC(CN4CCCC4)C3)c3nonc3c2)c1OC` [compound 1500]: the inhibition at 10 µM in test [1] came to 51%. The 50% inhibitory concentration (IC50) in test [2] is above 20 µM.

Regarding `CS(=O)(=O)c1ccc(-c2cc(N3CC(CN4CCCC4)C3)c3nonc3c2)cc1` [compound 1501], the inhibition at 10 µM in test [1] was 48%. The IC50 in test [2] is above 20 µM.

As to `FC(F)(F)c1ccc(-c2cc(N3CC(CN4CCCC4)C3)c3nonc3c2)cc1` [compound 1502], the inhibition at 10 µM in test [1] was determined as 55%. Also, the IC50 in test [2] was 4.78 µM.

On to `CC(=O)N1CC=C(c2cc(N3CC(CN4CCCC4)C3)c3nonc3c2)CC1` [compound 1503], for which the inhibition at 10 µM in test [1] came to 33%. Besides, in test [2], the IC50 is above 20 µM.

For the molecule `c1ccc(Oc2ccccc2-c2cc(N3CC(CN4CCCC4)C3)c3nonc3c2)cc1` [compound 1504], the inhibition at 10 µM in test [1] turned out to be 72%. In addition, the IC50 in test [2] came out at 5.27 µM.

Regarding `Clc1cccc(-c2cc(N3CC(CN4CCCC4)C3)c3nonc3c2)c1` [compound 1505], the inhibition at 10 µM in test [1] is 62%. The IC50 in test [2] is 4.62 µM.

On to `Cc1cc(C)cc(-c2cc(N3CC(CN4CCCC4)C3)c3nonc3c2)c1` [compound 1506], for which the inhibition at 10 µM in test [1] came out at 44%. In test [2], the IC50 stood at 4.44 µM.

`CCCc1ccc(-c2cc(N3CC(CN4CCCC4)C3)c3nonc3c2)cc1` [compound 1507]: the inhibition at 10 µM in test [1] was determined as 83%. Moreover, the IC50 in test [2] was determined as 2.46 µM.

Consider `c1cc(-c2cc(N3CC(CN4CCCC4)C3)c3nonc3c2)cs1` [compound 1509], for which the inhibition at 10 µM in test [1] is 71%. For the same molecule, the IC50 in test [2] was above 20 µM.

Turning to `c1cc(-c2cc(N3CC(CN4CCCC4)C3)c3nonc3c2)co1` [compound 1510], the inhibition at 10 µM in test [1] is 65%. Further, the IC50 in test [2] was above 20 µM.

For the molecule `COc1cccc(OC)c1-c1cc(N2CC(CN3CCCC3)C2)c2nonc2c1` [compound 1511], the inhibition at 10 µM in test [1] amounted to 27%. For the same molecule, the IC50 in test [2] worked out at 21.3 µM.

As for `CC(=O)c1ccc(-c2cc(N3CC(CN4CCCC4)C3)c3nonc3c2)cc1` [compound 1512], the inhibition at 10 µM in test [1] is 77%. Besides, the IC50 in test [2] is 12 µM.

In the case of `FC(F)(F)c1ccccc1-c1cc(N2CC(CN3CCCC3)C2)c2nonc2c1` [compound 1514], the inhibition at 10 µM in test [1] worked out at 57%. Also, in test [2], the IC50 amounted to 11.2 µM.

On to `COc1ccc(-c2cc(N3CC(CN4CCCC4)C3)c3nonc3c2)c(OC)c1` [compound 1515], for which the inhibition at 10 µM in test [1] was 61%. Further, the IC50 in test [2] amounted to 16.7 µM.

With `CN(C)C(=O)c1ccc(-c2cc(N3CC(CN4CCCC4)C3)c3nonc3c2)cc1` [compound 1516], the inhibition at 10 µM in test [1] was 47%. Further, in test [2], the IC50 is above 20 µM.

Take `CN1CC=C(c2cc(N3CC(CN4CCCC4)C3)c3nonc3c2)CC1` [compound 1517]: the inhibition at 10 µM in test [1] came to 33%. Further, in test [2], the IC50 was 6.8 µM.

Regarding `CS(=O)(=O)N1CC=C(c2cc(N3CC(CN4CCCC4)C3)c3nonc3c2)CC1` [compound 1518], the inhibition at 10 µM in test [1] was 35%. The IC50 in test [2] is above 20 µM.

As to `COCCN1CC=C(c2cc(N3CC(CN4CCCC4)C3)c3nonc3c2)CC1` [compound 1519], the inhibition at 10 µM in test [1] was found to be 53%. Moreover, the IC50 in test [2] turned out to be 8.2 µM.

As to `OC(c1cc(N2CC(CN3CCCC3)C2)c2nonc2c1)C(F)(F)F` (centres unmarked) [compound 1520], in test [1], the inhibition at 10 µM was found to be 46%. Moreover, the IC50 in test [2] was 6.1 µM.

For `CC(=O)N1CCC=C(c2cc(N3CC(CN4CCCC4)C3)c3nonc3c2)C1` [compound 1521], in test [1], the inhibition at 10 µM worked out at 20%. Also, the half-maximal inhibitory concentration (IC50) in test [2] worked out at 30.1 µM.

For the molecule `CS(=O)(=O)N1CCC=C(c2cc(N3CC(CN4CCCC4)C3)c3nonc3c2)C1` [compound 1522], the inhibition at 10 µM in test [1] stood at 44%. In test [2], the IC50 turned out to be 10.1 µM.
